# Columns and labels:
# [1] = tested on: SCOV-3; conditions: SCOV-3, Ovarian; 24 hours
# Procedure: Cells were cultured in McCoys's 5A modified medium (Biochrom, #F1015) including 10% fetal bovine serum (FBS), 2 mM L-glutamine, 100 U/ml penicillin and 100 μg/mL streptomycin (growth medium). […] 1 mL of the cell suspension were seeded in 24-well plates and incubated overnight at 37° C. and 5% CO2. The next day, cells were washed twice and growth medium was exchanged against DMEM without phenol red (Biochrom, #F0475) including 2 mM L-glutamine. Test compound was diluted in DMEM without phenol red (Biochrom, #F0475) including 2 mM L-glutamine. 400 μL of a 10 μM solution of the test compound was incubated for 24 hours at 37° C. and 5% CO2 in the presence of cells as well as in control wells (without cells) of the same 24-well plate.
# 25 μL of a 30 μM substrate solution, diluted in assay buffer, was added. All solutions were equilibrated at 37° C. prior to use. […] RFU/sec was calculated by SoftMax Pro software and plotted against test compound concentration. Four parameter logistic (4PL) curve fitting and IC50/pIC50 calculations were performed using GraphPad Prism 9.1 software. Residual activity was calculated as follows: […]
# The stability of exemplary compounds was further assessed in the presence of a variety of human cell lines from different tissue origins. […] Residual activity was calculated as follows: […]
# [2] = target: HEK-FAP cells (HEK293 cells engineered to express the human FAP) (Homo sapiens (Human), UniProt Q12884); assay: LigandTracer assay with 111In-labeled compounds; type: binding; conditions: 111In-labeled compound
# Procedure: HEK293 cells (human embryonic kidney cells) were engineered to express the human FAP. […] Cell concentrations were adjusted to 3×10^5 mL^−1, and 3.000 μL of the suspension was dispensed into a poly-lysine-coated, clear cell dish (10 cm). Approximately 24 hours after re-seeding, the medium was replaced by assay medium (Ham's medium with 20 mM HEPES) containing 1% FCS. The dish was placed in the LigandTracer® device and a baseline measurement was obtained using the LigandTracer® Control software (version 2.4). […] To determine the dissociation rate (kd) the cells were washed and subsequently incubated with fresh assay medium for several hours.
# [3] = tested on: HT-1376; assay: Stability in the presence of human cell lines (HT-1376); type: in vitro ADME; conditions: HT-1376, Bladder; 24 hours
# Procedure: (§1) Residual activity was calculated as follows: […]
# [4] = tested on: WM-266-4; assay: Stability in the presence of human cell lines (WM-266-4); type: in vitro ADME; conditions: WM-266-4, Skin; 24 hours
# Procedure: as §1
# [5] = tested on: MDA-MB-436; assay: Stability in the presence of human cell lines (MDA-MB-436); type: in vitro ADME; conditions: MDA-MB-436, Breast; 24 hours
# Procedure: as §1
# [6] = tested on: U2-OS; assay: Stability in the presence of human cell lines (U2-OS); type: in vitro ADME; conditions: Sarcoma (Bone), 24 hours
# Procedure: as §1
# [7] = tested on: HEC-265; assay: Stability in the presence of human cell lines (HEC-265); type: in vitro ADME; conditions: HEC-265, Endometrium; 24 hours
# Procedure: as §1
# [8] = tested on: C4-2; assay: Stability in the presence of human cell lines (C4-2); type: in vitro ADME; conditions: C4-2, Prostate; 24 hours
# Procedure: as §1
# [9] = tested on: WI-38; assay: Stability in the presence of human cell lines (WI-38); type: in vitro ADME; conditions: WI-38, Fibroblast (Lung); 24 hours
# Procedure: as §1
# [10] = tested on: 786-O; assay: Stability in the presence of human cell lines (786-O); type: in vitro ADME; conditions: Kidney, 24 hours
# Procedure: as §1
# [11] = tested on: U87MG; assay: Stability in the presence of human cell lines (U87MG); type: in vitro ADME; conditions: Brain, 24 hours
# Procedure: as §1
# [12] = target: Human recombinant FAP (Homo sapiens (Human), UniProt Q12884); assay: Surface plasmon resonance assay (Biacore T200, SCK); type: binding; conditions: SPR dissociation half-life
# Chain of Human recombinant FAP (Q12884 whole entry): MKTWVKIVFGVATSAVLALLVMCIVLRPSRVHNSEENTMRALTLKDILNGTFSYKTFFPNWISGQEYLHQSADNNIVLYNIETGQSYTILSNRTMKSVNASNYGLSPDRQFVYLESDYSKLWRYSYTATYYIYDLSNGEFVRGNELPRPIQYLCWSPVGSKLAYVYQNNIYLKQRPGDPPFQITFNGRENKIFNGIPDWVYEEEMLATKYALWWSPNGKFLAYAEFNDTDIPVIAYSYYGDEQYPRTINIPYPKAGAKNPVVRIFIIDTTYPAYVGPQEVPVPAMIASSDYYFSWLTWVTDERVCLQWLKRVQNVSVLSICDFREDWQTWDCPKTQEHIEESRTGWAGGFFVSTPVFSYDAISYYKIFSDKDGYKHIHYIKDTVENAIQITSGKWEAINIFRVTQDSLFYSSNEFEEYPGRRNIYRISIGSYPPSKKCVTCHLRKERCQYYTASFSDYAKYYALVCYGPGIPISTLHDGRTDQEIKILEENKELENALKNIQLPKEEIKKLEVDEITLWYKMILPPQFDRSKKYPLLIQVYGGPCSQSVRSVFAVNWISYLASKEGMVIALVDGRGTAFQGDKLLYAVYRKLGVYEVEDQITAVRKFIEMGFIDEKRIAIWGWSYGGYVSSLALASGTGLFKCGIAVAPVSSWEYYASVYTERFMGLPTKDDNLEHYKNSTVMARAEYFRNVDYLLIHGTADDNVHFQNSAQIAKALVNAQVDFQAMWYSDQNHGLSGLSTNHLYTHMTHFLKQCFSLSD
# Procedure, shortened: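 Anti-FAP antibody amine-coupled to CM5 chip (7000 RU), human recombinant FAP captured at 20 μg/mL; compounds run in single-cycle kinetics at 25° C in HBST with 0.1% DMSO, top concentration 500 nM. Reference-cell and buffer-run drift subtraction; kon, koff, KD, t1/2 from 1:1 Langmuir fit, reported as pKD.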
# [13] = tested on: K-562; assay: Stability in the presence of human cell lines (K-562); type: in vitro ADME; conditions: K-562, Blood; 24 hours
# Procedure: as §1
# [14] = tested on: HT-29 cells; assay: Stability in the presence of tumor cells (HT-29), FAP IC50 of supernatants; type: in vitro ADME, human
# Procedure: The stability of exemplary compounds was further assessed in the presence of a variety of human cell lines from different tissue origins. […] Compounds were diluted in DMEM without phenol red (Biochrom, #F0475) including 2 mM L-glutamine. 400 μL of a 10 μM solution of the test compound was incubated for 24 hours at 37° C. and 5% CO2 in the presence of cells as well as in control wells (without cells) of the same 24-well plate. IC50/pIC50 determination of the supernatants was performed as described above.
# [15] = tested on: A549; assay: Stability in the presence of human cell lines (A549); type: in vitro ADME; conditions: A549, Lung; 24 hours
# Procedure: as §1
# [16] = tested on: AsPC-1; assay: Stability in the presence of human cell lines (AsPC-1); type: in vitro ADME; conditions: AsPC-1, Pancreas; 24 hours
# Procedure: as §1
compound,measurement,setting,value
"N#C[C@@H]1CC(F)(F)CN1C(=O)CNC(=O)c1ccnc2ccc(OCCCN3CCN(C(=O)CN4CCN(CC(=O)O)CCN(CC(=O)O)CCN(CC(=O)O)CC4)CC3)cc12 [Compound 3BP-2929, reference compound]",Residual Stability (%),[1],4%
same,HL (half-life),[2],4.6 ± 2.37 h
same,Residual Stability (%),[3],10%
same,Residual Stability (%),[4],70%
same,Residual Stability (%),[5],17%
same,Residual Stability (%),[6],30%
same,Residual Stability (%),[7],65%
same,Residual Stability (%),[8],19%
same,Residual Stability (%),[9],26%
same,Residual Stability (%),[10],85%
same,Residual Stability (%),[11],45%
same,HL [min] (Biacore),[12],85 min
same,Residual Stability (%),[13],70%
same,pIC50 (incubation in cell medium w/o HT-29),"[14]; 10 μM compound, 24 hours at 37° C. in control wells without cells, supernatant tested on recombinant human FAP",8.7
same,pIC50 (incubation in the presence of HT-29 cells),"[14]; 10 μM compound, 24 hours at 37° C. with HT-29 cells, supernatant tested on recombinant human FAP",7.9
same,Residual Stability (%),"[14]; HT-29, Intestine, 24 hours",14%
same,stability in the presence of HT-29 cells (in words),[14]; HT-29 cells,unstable
same,Residual activity after incubation with HT-29 cells for 24 hours (%),"[14]; HT-29 cells, 24 hours",16%
same,Residual Stability (%),[15],20%
same,Residual Stability (%),[16],35%

# Source: patent US20240335569A1, “FIBROBLAST ACTIVATION PROTEIN INHIBITORS AND USE THEREOF” (3 B PHARMACEUTICALS GMBH, priority 2021, published 2024)
